According to patent publication US20260199289A1, “USE OF GLYCOGEN METABOLISM INHIBITORS FOR THE TREATMENT OF CANCER” (THE UNIVERSITY OF VERMONT AND STATE AGRICULTURAL COLLEGE, priority 2022, published 2026):
Entries after “also recorded” stand apart in the source; their conditions may differ.

How the values were obtained:
[1] = system: 8505C cells; experiment: Glycogen content (colorimetric assay, TEM) in ATC cells; type: cell-based, human; conditions: for glycogen content: 8505C cells, overnight treatment
Protocol: Transmission Electron Microscopy of Glycogen Deposits—Cells were seeded in 10 cm dishes and allowed to adhere overnight. […] Cells were then rinsed with PBS and lifted with trypsin for preparation for TEM as described previously. Thwe et al., “Cell-intrinsic Glycogen Metabolism Supports Early Glycolytic Reprogramming Required for Dendritic Cell Immune Responses,” Cell Metabolism 26:558-567.e555 (2017), which is hereby incorporated by reference in its entirety.
PYGB RNA Interference—For validating successful PYGB knockdown, 4.0×10^4 cells were plated in 12 well plates containing 0.2% Lipofectamine™ 3000 Transfection Reagent and the indicated concentration of siRNA targeting PYGB or control siRNA in 1 ml CTM. RNA was extracted 72 hours later for RT-qPCR analysis and protein was extracted 96 hours later for immunoblotting. For measuring the effect of PYGB knockdown on cell viability, 1.0×10^3 cells were seeded in 96 well plates with 0.15% Lipofectamine™ 3000 Transfection Reagent and the indicated concentration of siRNA targeting PYGB or control siRNA in 200 μl CTM for 7 days before conducting the SRB assay. For measuring the effect of PYGB knockdown on glycogen content, 6.5×10^5 cells were seeded in 10 cm dishes with 0.2% Lipofectamine™ 3000 Transfection Reagent and the indicated concentration of siRNA targeting PYGB or control siRNA in 10 ml CTM for 4 days preceding cell lysis for glycogen determination.
Quantification of Levels of Glycogen, Glucose-1-Phosphate, Glucose-6-Phosphate, Lactate, ATP, Glucose, NADPH, and Glutathione—Briefly, cells were seeded in 10 cm dishes (for measuring glycogen and NADPH), 6 well plates (GIP, G6P, lactate, glucose, and glutathione), or 96 well plates (ATP) and allowed to adhere overnight. CTM was aspirated and cells were rinsed with PBS before application of compounds dissolved in CTM for 24 hours, at which point cells were ~90% confluent. CTM was then aspirated, cells were rinsed with PBS, and lysed according to the respective manufacturer protocol (see Table 4) for metabolite analysis.

[2] = system: 8505C cells; experiment: SRB cell viability assay in ATC cells; type: cell-based, human; conditions: 8505C ATC cells; indicated concentrations, 48 hours
Protocol: In Vitro Cell Staining for Measuring Drug Efficacy—Thyroid cells (4.0×10^3) were seeded in 96 well plates with 100 μl CTM and allowed to adhere overnight. 100 μl of CTM containing 2× concentration of compound was overlayed in each well for 48 hours unless otherwise indicated. Each well then received 100 μl of 10% w/v cold trichloroacetic acid (Fisher) and incubated at 4° C. for 1 hour to fix the cells. Each well was rinsed 3× with DI H2O and stained with 100 μl 0.057% w/v sulforhodamine B (SRB, Sigma-Aldrich) for 30 minutes at room temperature in the dark. Wells were washed 4× with 300 μl 1% v/v acetic acid (Fisher), and remaining SRB stain was solubilized with 200 μl of 10 mM Tris buffer, pH 10.5 (Fisher). Absorbance was measured at 564 nm with a Synergy 2 Multi-Detection Microplate Reader (Agilent Technologies) and normalized to a vehicle control. Drug synergy was evaluated using the coefficient of drug interaction (CDI) formula: CDI=AB/(A×B)×100, where AB is the percent remaining cells of an indicated combination treatment, A is the average percent remaining cells of agent 1 alone, and B is the average percent remaining cells of agent 2 alone. […] Hao et al., “Effect of Lumiracoxib on Proliferation and Apoptosis of Human Nonsmall Cell Lung Cancer Cells In vitro,” Chin Med J (Engl) 121:602-607 (2008), which is hereby incorporated by reference in its entirety. […]

[3] = cited from earlier work
[4] = system: OCUT-2 cells; experiment: SRB cell viability assay in OCUT-2 cells; type: cell-based, human; conditions: indicated concentrations, 48 hours
Protocol: In Vitro Cell Staining for Measuring Drug Efficacy—Thyroid cells (4.0×10^3) were seeded in 96 well plates with 100 μl CTM and allowed to adhere overnight. 100 μl of CTM containing 2× concentration of compound was overlayed in each well for 48 hours unless otherwise indicated. Each well then received 100 μl of 10% w/v cold trichloroacetic acid (Fisher) and incubated at 4° C. for 1 hour to fix the cells. Each well was rinsed 3× with DI H2O and stained with 100 μl 0.057% w/v sulforhodamine B (SRB, Sigma-Aldrich) for 30 minutes at room temperature in the dark. Wells were washed 4× with 300 μl 1% v/v acetic acid (Fisher), and remaining SRB stain was solubilized with 200 μl of 10 mM Tris buffer, pH 10.5 (Fisher). Absorbance was measured at 564 nm with a Synergy 2 Multi-Detection Microplate Reader (Agilent Technologies) and normalized to a vehicle control. Drug synergy was evaluated using the coefficient of drug interaction (CDI) formula: CDI=AB/(A×B)×100, where AB is the percent remaining cells of an indicated combination treatment, A is the average percent remaining cells of agent 1 alone, and B is the average percent remaining cells of agent 2 alone. […] Hao et al., “Effect of Lumiracoxib on Proliferation and Apoptosis of Human Nonsmall Cell Lung Cancer Cells In vitro,” Chin Med J (Engl) 121:602-607 (2008), which is hereby incorporated by reference in its entirety.

[5] = system: mouse embryonic fibroblasts; conditions: cited from earlier work
[6] = target: T1, purified GYS1 (Homo sapiens, UniProt P13807); conditions: cited from earlier work
T1 sequence (P13807 1-737): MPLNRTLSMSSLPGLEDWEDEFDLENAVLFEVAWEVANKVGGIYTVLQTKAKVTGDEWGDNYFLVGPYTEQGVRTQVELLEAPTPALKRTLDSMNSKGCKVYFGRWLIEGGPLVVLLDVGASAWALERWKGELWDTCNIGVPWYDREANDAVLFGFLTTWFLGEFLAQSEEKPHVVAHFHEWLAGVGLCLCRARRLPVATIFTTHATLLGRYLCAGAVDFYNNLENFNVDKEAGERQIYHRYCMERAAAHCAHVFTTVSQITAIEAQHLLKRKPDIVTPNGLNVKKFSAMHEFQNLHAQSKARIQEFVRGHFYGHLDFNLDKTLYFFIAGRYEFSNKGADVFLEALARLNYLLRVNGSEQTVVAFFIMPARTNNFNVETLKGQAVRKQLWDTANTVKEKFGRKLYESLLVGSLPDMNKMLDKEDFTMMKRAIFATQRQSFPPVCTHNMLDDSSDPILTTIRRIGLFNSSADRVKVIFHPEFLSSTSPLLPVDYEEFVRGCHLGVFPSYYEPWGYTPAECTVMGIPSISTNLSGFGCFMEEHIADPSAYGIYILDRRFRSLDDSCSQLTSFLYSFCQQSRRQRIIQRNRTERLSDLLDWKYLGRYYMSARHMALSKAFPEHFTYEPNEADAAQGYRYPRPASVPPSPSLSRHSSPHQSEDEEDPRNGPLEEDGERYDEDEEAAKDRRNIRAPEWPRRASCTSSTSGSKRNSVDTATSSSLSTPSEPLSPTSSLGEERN

[7] = system: cell lysates; conditions: cited from earlier work

CON(C)C(=O)[C@H](O)[C@H](Cc1ccccc1)NC(=O)c1cc2cc(Cl)ccc2[nH]1 [CP316819, 5-chloro-N-[(2S,3R)-3-hydroxy-4-[methoxy(methyl)amino]-4-oxo-1-phenylbutan-2-yl]-1H-indole-2-carboxamide]
glycogen content [1]: increased the glycogen content
cell viability (SRB assay) [2]: sensitive; also recorded: limited cell viability
glycogen storage in rat brains [3]: enhanced glycogen storage in rat brains

COc1ccccc1O [guaiacol]
glycogen content [1]: decrease
decrease of glycogen stores ([1]; ATC cells, stated as comparable to the literature value): ~50%
cell viability (SRB assay) [2]: decrease ATC cell viability
cell viability (SRB assay) [4]: decrease ATC cell viability
decrease of glycogen stores [5]: 50%

Oc1ccc(-c2c(-c3ccc(O)c(O)c3O)n[nH]c2C(F)(F)F)cc1 [yGsy2p-IN-1]
glycogen content [1]: decrease glycogen content; also recorded: successfully reduced glycogen levels
cell viability (SRB assay) [2]: limit ATC viability; also recorded: limited cell viability in ATC cells
inhibition of purified GYS1 [6]: robustly inhibited purified GYS1
14C-glucose incorporation [7]: decreased 14C-glucose incorporation in cell lysates
